Measured values: publication PMC6895180 (Nature Communications, 2019)
Values joined by “and” are separate entries in the source; they are usually repeats but may differ in a detail not shown here. Identical values can stand only once. Like-named read-outs stand apart in the source and are kept apart here.

Assays:
[1] = target: T1, P2 transporter (TbAT1) (Trypanosoma brucei brucei, UniProt Q9Y0I0); parameters: method as in PMID 24283924; conditions: ref [18]; cited from earlier work
[2] = system: Lister 427WT T. b. brucei; assay: Adenosine deaminase susceptibility (drug sensitivity with/without 2 µM deoxycoformycin); type: cell-based, Trypanosoma brucei brucei; conditions: Trypanosoma brucei, Lister 427WT, mean ± SEM, n=3
Method: Drug susceptibility tests with Lister 427WT, TbAT1-KO[48], B48[26] and ISMR1[27] were performed using an assay based on the viability indicator dye resazurin in 96-well plates, each well containing 2 × 10^4 cells. The plates were incubated for 48 h with a doubling dilution series of the test compounds in HMI-9/fetal bovine serum at 37 °C/5% CO2 (23 dilutions starting at 100 µM, except for the pentamidine control (50 µM)), after which resazurin (20 µL of 125 µg mL^−1 resazurin sodium salt solution was added to each well (containing 200 µL of cells and test compound)) was added to each well and the plates incubated for another 24 h. Fluorescence was determined using a FLUOstar Optima (BMG Labtech, Durham, NC) and the results fitted to a sigmoid curve with variable slope using Prism 5.0 or Prism 7.04 (GraphPad, San Diego, CA). […]
Adenosine deaminase susceptibility
in the presence or absence of 2 µM 2’-deoxycoformycin. […]

[3] = system: T. brucei BSF s427 wildtype cells; assay: Growth assays of T. brucei (trypanocidal/trypanostatic effect); type: cell-based, Trypanosoma brucei; conditions: experiment 1
Method: Growth assays of T. brucei
To test the effect of the novel adenosine analogues on the growth of T. brucei BSF, s427 wildtype cells were seeded at 1×10^5 cells mL-1 in 5 mL of HMI-9 medium with 10% FBS and treated with compounds […]
cells were also incubated in drug-free medium under the same conditions. 2 μM of 2’-deoxycoformycin were added to all cultures to avoid any potential effect of serum adenosine deaminase on the activity of test compounds and cordycepin.1
Cells were manually counted in Neubauer chambers at 0, 2, 4, 6, 8, 12, 24, 36 and 48 h after addition of […]
the drugs. […]
After 6 and 12 h after addition of drugs, approximately 2×10^6 cells were harvested from each group and applied to glass slides pre-treated with poly-L-lysine, left to settle for 5 min and fixed with 4% formaldehyde for 4 min. The formaldehyde was neutralised by addition of 100 mM glycine (20 min).
Cells were washed once with PBS and blocked for 1 h with 1% BSA/0.2% Tween-20 in PBS. Cells were […]

[4] = target: P1 transporter; parameters: method as in PMID 10570043; conditions: ref [29]; cited from earlier work
[5] = target: T1, P2 transporter (TbAT1); assay: cell-based
Method: Non-specific association of radiolabel with the cell pellet was determined using an identical incubation in the presence of saturating (1 mM) unlabelled adenosine.

T1 sequence (Q9Y0I0 entry or part of it): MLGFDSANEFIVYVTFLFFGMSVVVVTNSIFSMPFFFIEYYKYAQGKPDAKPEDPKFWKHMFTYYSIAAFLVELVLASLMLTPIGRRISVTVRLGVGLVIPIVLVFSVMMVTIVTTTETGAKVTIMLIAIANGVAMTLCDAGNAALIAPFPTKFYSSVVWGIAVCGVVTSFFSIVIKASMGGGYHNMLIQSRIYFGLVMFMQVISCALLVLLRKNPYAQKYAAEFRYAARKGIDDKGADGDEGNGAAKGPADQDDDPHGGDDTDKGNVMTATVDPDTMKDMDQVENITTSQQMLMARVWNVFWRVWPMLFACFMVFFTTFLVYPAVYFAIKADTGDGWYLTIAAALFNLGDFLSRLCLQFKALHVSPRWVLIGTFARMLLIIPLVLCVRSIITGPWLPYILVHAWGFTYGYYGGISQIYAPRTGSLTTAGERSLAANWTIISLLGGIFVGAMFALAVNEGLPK

## Nc1ncnc2c1ncn2[C@@H]1O[C@H](CO)C[C@H]1O [Compound 3, cordycepin, reference compound]
[1]
  Ki: 180 ± 20 nM
[2]; absence of deoxycoformycin, read-out: T. b. brucei EC50, -Dcf
  EC50: 440 ± 110 nM
[2]; presence of 2 µM deoxycoformycin, read-out: T. b. brucei EC50, +Dcf
  EC50: 3.6 ± 1 nM
[3]; 2xEC50, 2 h
  AVG of cells/mL: 122500 cells/mL
  Cells/mL: 130000 Cells/mL and 115000 Cells/mL
  Counts: 52 and 46
[3]; 2xEC50, 4 h
  AVG of cells/mL: 122500 cells/mL
  Cells/mL: 110000 Cells/mL and 135000 Cells/mL
  Counts: 44 and 54
[3]; 2xEC50, 6 h
  AVG of cells/mL: 161250 cells/mL
  Cells/mL: 150000 Cells/mL and 172500 Cells/mL
  Counts: 60 and 69
[3]; 2xEC50, 8 h
  AVG of cells/mL: 187500 cells/mL
  Cells/mL: 207500 Cells/mL and 167500 Cells/mL
  Counts: 83 and 67
[3]; 2xEC50, 12 h
  AVG of cells/mL: 195000 cells/mL
  Counts: 75 and 81
[3]; 2xEC50, 24 h
  AVG of cells/mL: 106250 cells/mL
  Cells/mL: 82500 Cells/mL and 130000 Cells/mL
  Counts: 33 and 52
[3]; 2xEC50, 36 h
  AVG of cells/mL: 81250 cells/mL
  Counts: 29 and 36
[3]; 2xEC50, 48 h
  AVG of cells/mL: 105000 cells/mL
  Cells/mL: 105000 Cells/mL
  Counts: 42
[3]; 5xEC50, 2 h
  AVG of cells/mL: 145000 cells/mL
  Cells/mL: 177500 Cells/mL and 112500 Cells/mL
  Counts: 71 and 45
[3]; 5xEC50, 4 h
  AVG of cells/mL: 118750 cells/mL
  Cells/mL: 107500 Cells/mL and 130000 Cells/mL
  Counts: 43 and 52
[3]; 5xEC50, 6 h
  AVG of cells/mL: 130000 cells/mL
  Cells/mL: 130000 Cells/mL
  Counts: 52
[3]; 5xEC50, 8 h
  AVG of cells/mL: 172500 cells/mL
  Cells/mL: 177500 Cells/mL and 167500 Cells/mL
  Counts: 71 and 67
[3]; 5xEC50, 12 h
  AVG of cells/mL: 156250 cells/mL
  Counts: 60 and 65
[3]; 5xEC50, 24 h
  AVG of cells/mL: 33750 cells/mL
  Cells/mL: 35000 Cells/mL and 32500 Cells/mL
  Counts: 14 and 13
[3]; 5xEC50, 36 h
  AVG of cells/mL: 31250 cells/mL
  Cells/mL: 32500 Cells/mL and 30000 Cells/mL
  Counts: 13 and 12
[3]; 5xEC50, 48 h
  AVG of cells/mL: 15000 cells/mL
  Cells/mL: 15000 Cells/mL
  Counts: 6
[4]
  Ki: 210000 ± 48000 nM
[5]
  P2 Ki, fold lower than the Km value for adenosine: roughly 3 fold
  energy advantage at P2 versus adenosine: roughly 3 kJ mol^−1
[5]; Gibbs free energy from −RT ln(Ki)
  P2 transporter ΔG^0: -9.2 kcal/mol
[5]; in comparison to adenosine
  P2 transporter δ(ΔG^0): -0.645 kcal/mol
